Test [1] concerns HeLa. The test can be described thus: Cytotoxicity against human HeLa cells assessed as reduction in cell viability after 2 days by MTT assay. The following applies: 48 h, read-out: LC50 (the source's name). The class given is functional. (In general: Tetrazolium dyes change colour on reduction, which living cells bring about.)
Test [2] has as its system MCF7. The test can be described thus: Cytotoxicity against human MCF7 cells assessed as cell viability at 1 uM after 2 days by MTT assay relative to control. Format: functional. The note with it: MCF7, 48 h, read-out: Activity.
Test [3] has as its system MCF7. Kind of test: Cytotoxicity against human MCF7 cells assessed as cell viability at 100 uM after 2 days by MTT assay relative to control. Format: functional. The following applies: MCF7, 48 h, read-out: Activity.
The subject of test [4] is HeLa. Kind of test: Cytotoxicity against human HeLa cells assessed as cell viability at 10 uM after 2 days by MTT assay relative to control. The class given is functional. The note with it: 48 h, read-out: Activity.
Test [5] concerns HeLa. The test can be described thus: Cytotoxicity against human HeLa cells assessed as cell viability at 0.1 uM after 2 days by MTT assay relative to control. The class given is functional. The following applies: 48 h, read-out: Activity.
The subject of test [6] is MCF7. The test can be described thus: Cytotoxicity against human MCF7 cells assessed as cell viability at 0.1 uM after 2 days by MTT assay relative to control. Format: functional. The note with it: MCF7, 48 h, read-out: Activity.
In test [7] the test system is HeLa. Kind of test: Cytotoxicity against human HeLa cells assessed as cell viability at 100 uM after 2 days by MTT assay relative to control. The following applies: 48 h, read-out: Activity. Format: functional.
The test system of test [8] is MCF7. The test can be described thus: Cytotoxicity against human MCF7 cells assessed as reduction in cell viability after 2 days by MTT assay. The following applies: MCF7, 48 h, read-out: LC50 (the source's name). Format: functional.
In test [9] the test system is MCF7. Kind of test: Cytotoxicity against human MCF7 cells assessed as cell viability at 10 uM after 2 days by MTT assay relative to control. Format: functional. The note with it: MCF7, 48 h, read-out: Activity.
For test [10], the system named is HeLa. Kind of test: Cytotoxicity against human HeLa cells assessed as cell viability at 1 uM after 2 days by MTT assay relative to control. The note with it: 48 h, read-out: Activity. Format: functional.
For test [11], the system named is HeLa. Kind of test: Induction of apoptosis in human HeLa cells assessed as late apoptotic cells at 10 uM after 48 hrs by Annexin V/propidium iodide staining based flow cytometric analysis (reference value: 31.80 +/- 0.25 %). Format: functional.
Test [12] deals with HeLa. The test can be described thus: Induction of apoptosis in human HeLa cells assessed as viable cells at 10 uM after 48 hrs by Annexin V/propidium iodide staining based flow cytometric analysis (reference value: 46.00 +/- 0.56 %). The class given is functional. The note with it: read-out: Activity.
For test [13], the system named is HeLa. The test can be described thus: Induction of apoptosis in human HeLa cells assessed as early apoptotic cells at 2.5 uM after 48 hrs by Annexin V/propidium iodide staining based flow cytometric analysis (reference value: 0.05 +/- 0.07 %). Format: functional. (A flow cytometer gives signals particle by particle.)
Test [14] deals with HeLa. Kind of test: Induction of apoptosis in human HeLa cells assessed as DNA fragmentation at 2.5 to 10 uM after 48 hrs by ethidium bromide staining based agarose gel electrophoresis. Format: functional, cell-based.
The subject of test [15] is HeLa. The test can be described thus: Induction of apoptosis in human HeLa cells assessed as necrotic cells at 10 uM after 48 hrs by Annexin V/propidium iodide staining based flow cytometric analysis (reference value: 21.45 +/- 0.78 %). The class given is functional.
Test [16] has as its system HeLa. Kind of test: Induction of apoptosis in human HeLa cells assessed as viable cells at 5 uM after 48 hrs by Annexin V/propidium iodide staining based flow cytometric analysis (reference value: 46.00 +/- 0.56 %). The following applies: read-out: Activity. Format: functional.
Test [17] deals with HeLa. The test can be described thus: Induction of apoptosis in human HeLa cells assessed as late apoptotic cells at 5 uM after 48 hrs by Annexin V/propidium iodide staining based flow cytometric analysis (reference value: 31.80 +/- 0.25 %). The class given is functional.
In test [18] the test system is HeLa. Kind of test: Induction of apoptosis in human HeLa cells assessed as early apoptotic cells at 5 uM after 48 hrs by Annexin V/propidium iodide staining based flow cytometric analysis (reference value: 0.05 +/- 0.07 %). Format: functional.
The subject of test [19] is HeLa. The test can be described thus: Induction of apoptosis in human HeLa cells assessed as caspase 3 activation at 2.5 to 10 uM after 24 hrs by colorimetric analysis. Format: functional.
Test [20] concerns HeLa. Kind of test: Induction of apoptosis in human HeLa cells assessed as necrotic cells at 2.5 uM after 48 hrs by Annexin V/propidium iodide staining based flow cytometric analysis (reference value: 21.45 +/- 0.78 %). Format: functional.
Test [21] concerns HeLa. The test can be described thus: Induction of apoptosis in human HeLa cells assessed as early apoptotic cells at 10 uM after 48 hrs by Annexin V/propidium iodide staining based flow cytometric analysis (reference value: 0.05 +/- 0.07 %). The class given is functional.
Test [22] deals with HeLa. The test can be described thus: Induction of apoptosis in human HeLa cells assessed as necrotic cells at 5 uM after 48 hrs by Annexin V/propidium iodide staining based flow cytometric analysis (reference value: 21.45 +/- 0.78 %). The class given is functional.
Test [23] concerns HeLa. The test can be described thus: Induction of apoptosis in human HeLa cells assessed as viable cells at 2.5 uM after 48 hrs by Annexin V/propidium iodide staining based flow cytometric analysis (reference value: 46.00 +/- 0.56 %). The following applies: read-out: Activity. Format: functional.
The test system of test [24] is HeLa. The test can be described thus: Induction of apoptosis in human HeLa cells assessed as late apoptotic cells at 2.5 uM after 48 hrs by Annexin V/propidium iodide staining based flow cytometric analysis (reference value: 31.80 +/- 0.25 %). Format: functional.

Active and inactive are the calls of the source. No cut-off for these calls is given here. Bounds are passed on as bounds.

In the case of `COc1ccc(-c2cc(C(C)=O)c3[nH]c(-c4ccc(F)cc4)cc3c2)cc1`, the CC50 stood at 9.46 µM with HeLa [1] and 16.8 µM in the test with MCF7 [8]. Further, the values for the viability at 1 µM in the test with MCF7 [2] and in the test on HeLa [10] were 69.7% and 56.1%, respectively. In addition, the viability at 100 µM in the test with MCF7 [3] is 14.8%; with HeLa [7] it was 20.6%. In addition, the viability at 10 µM worked out at 46.5% in the test on HeLa [4] and 52.9% in the test on MCF7 [9]. Moreover, the viability at 0.1 µM with HeLa [5] was 74.5%; in the test with MCF7 [6] it was 88.4%.
`CC(=O)c1cc(/C=C/c2ccc(F)cc2)cc2cc(-c3ccccc3)[nH]c12`: the CC50 in the test on HeLa [1] turned out to be 9.26 µM; in the test on MCF7 [8] it was 18.5 µM. Further, the viability at 1 µM in the test on MCF7 [2] was determined as 72.2%; in the test with HeLa [10], 70%. Moreover, the viability at 100 µM was 46.7% in the test with MCF7 [3] and 23.9% with HeLa [7]. The viability at 10 µM amounted to 32.8% in the test with HeLa [4] and 46.5% in the test on MCF7 [9]. For the same compound, the values for the viability at 0.1 µM in the test with HeLa [5] and in the test on MCF7 [6] were 74.2% and 89.7%, respectively.
Take `CC(=O)c1cc(/C=C/c2ccc(F)cc2)cc2cc(-c3ccc(F)cc3)[nH]c12`: the Activity with HeLa [11] amounted to 13.4%; with HeLa [13] it was 0.2%; in the test on HeLa [15] it was 64.1%; with HeLa [17], 44%; with HeLa [18], 0.5%; in the test on HeLa [20] it was 14.35%. The Activity in the test with HeLa [21] is recorded as 0.35%; in the test with HeLa [22] it was 20.4%; in the test on HeLa [24], 33.5%. The viability at 10 µM with HeLa [12] was determined as 22.4%; in the test with HeLa [4] it was 41.9%; in the test on MCF7 [9], 67.4%. For the same compound, the CC50 with HeLa [1] was 5.68 µM; in the test with MCF7 [8], greater than 100 µM. Besides, the viability at 1 µM with MCF7 [2] came to 82%; in the test with HeLa [10] it was 53.7%. The outcome in the test with HeLa [14] was Active. Moreover, the viability at 5 µM with HeLa [16] is 35.5%. Moreover, the viability at 100 µM with MCF7 [3] was 42.2%; in the test on HeLa [7], 20.3%. The viability at 0.1 µM in the test with HeLa [5] worked out at 72.6%; in the test on MCF7 [6], 98.8%. Moreover, the “fold change (FC)” value in the test on HeLa [19] was found to be 3. In the test on HeLa [23], the viability at 2.5 µM stood at 52.4%.
As to `COc1ccc(-c2cc3cc(/C=C/c4ccc(F)cc4)cc(C(C)=O)c3[nH]2)cc1`, the CC50 came out at 8.77 µM in the test with HeLa [1] and 83 µM with MCF7 [8]. Besides, the viability at 1 µM with MCF7 [2] was 97.3%; in the test on HeLa [10] it was 67%. Further, the viability at 100 µM with MCF7 [3] is 47.6%; with HeLa [7] it was 18.9%. The viability at 10 µM in the test on HeLa [4] came to 25.8%; in the test with MCF7 [9], 76.5%. The viability at 0.1 µM stood at 90.5% in the test on HeLa [5] and 97.2% in the test with MCF7 [6].
As for `CC(=O)c1cc(-c2ccccc2)cc2cc(-c3ccccc3)[nH]c12`, the CC50 with HeLa [1] and in the test on MCF7 [8] was greater than 100 µM each time. Moreover, the viability at 1 µM came to 98.6% with MCF7 [2] and 65.8% with HeLa [10]. Besides, the viability at 100 µM in the test with MCF7 [3] turned out to be 65.8%; with HeLa [7] it was 51.4%. The figures for the viability at 10 µM with HeLa [4] and in the test on MCF7 [9] were 60.9% and 96.2%, respectively. Also, the viability at 0.1 µM with HeLa [5] turned out to be 72.3%; in the test on MCF7 [6] it was 99.3%.
Turning to `COc1ccc(-c2cc3cc(-c4ccc(F)cc4)cc(C(C)=O)c3[nH]2)cc1`, the figures for the CC50 in the test on HeLa [1] and with MCF7 [8] were 42.8 µM and greater than 100 µM, respectively. For the same compound, the viability at 1 µM in the test with MCF7 [2] is 96.4%; in the test with HeLa [10], 62.9%. Besides, the viability at 100 µM with MCF7 [3] stood at 47%; in the test with HeLa [7], 46.5%. Besides, the viability at 10 µM came out at 52% in the test on HeLa [4] and 77.5% in the test with MCF7 [9]. Further, the viability at 0.1 µM stood at 81% in the test on HeLa [5] and 97.3% with MCF7 [6].
For `CC(=O)c1cc(-c2ccccc2)cc2cc(-c3ccc(F)cc3)[nH]c12`, the CC50 in the test on HeLa [1] and in the test with MCF7 [8] was greater than 100 µM throughout. Besides, the viability at 1 µM in the test with MCF7 [2] stood at 96.8%; in the test with HeLa [10], 85.1%. Moreover, the viability at 100 µM is 73.3% with MCF7 [3] and 68.3% in the test with HeLa [7]. For the same compound, the results for the viability at 10 µM in the test on HeLa [4] and in the test with MCF7 [9] were 76.9% and 91.9%, respectively. Further, the results for the viability at 0.1 µM with HeLa [5] and in the test on MCF7 [6] were 91.1% and 98.5%, respectively.

Source of the values: ChEMBL document CHEMBL4477257, “In vitro cytotoxicity of novel 2,5,7-tricarbo-substituted indoles derived from 2-amino-5-bromo-3-iodoacetophenone” (2016).
